Results reported in patent US12544453B2, “Amphotericin B conjugated stabilized gold nanoparticles and uses thereof” (Max-Planck-Gesellschaft zur Förderung der Wissenschaften …, priority 2019, dated 2026).
≈ marks a conversion by molar mass, not a printed value. Like-named read-outs stand apart in the source and are kept apart here.

What was measured:
Assay in all cases: Antifungal susceptibility testing, broth microdilution MIC
Assay type in all cases: cell-based
Candida auris = details: Candidozyma auris, fluconazole MIC50 (50% growth reduction), read-out: Minimum Inhibitory Concentration (MIC)
Description: (§1) The minimum inhibitory concentrations (MICs) of fluconazole, amphotericin B, amphotericin B thiohexose or thiopentose stabilized gold nanoparticles, and of naked gold nanoparticles were determined using broth microdilution methods following the guidelines of the Clinical and Laboratory Standards Institute (Reference Method for Broth Dilution Antifungal Susceptibility Testing of Yeasts, Alexander B. D., 2017, M27-A4). Microtiter 96-well plates containing two-fold serial dilutions, at final concentrations ranging from […], of the test agents in RPMI-1640 medium (buffered with MOPS and adjusted to pH=7) were inoculated with the freshly-prepared fungal suspensions. Microtiter plates were incubated at 35° C. for 24-72 hrs according to the tested species.

Candida tropicalis = system: Candida tropicalis
Description: as §1

Cryptococcus gatti = details: read-out: Minimum Inhibitory Concentration (MIC)
Description: as §1

Candida albicans = details: read-out: Minimum Inhibitory Concentration (MIC)
Description: as §1

Candida krusei = details: Pichia kudriavzevii, read-out: Minimum Inhibitory Concentration (MIC)
Description: as §1

Cryptococcus neoformans = details: read-out: Minimum Inhibitory Concentration (MIC)
Description: as §1

Candida glabrata = details: Nakaseomyces glabratus, fluconazole MIC50 (50% growth reduction), read-out: Minimum Inhibitory Concentration (MIC)
Description: as §1

Aspergillus fumigatus = details: read-out: Minimum Inhibitory Concentration (MIC)
Description: as §1

Candida parapsilosis = details: Lodderomyces parapsilosis, read-out: Minimum Inhibitory Concentration (MIC)
Description: as §1

For OC(Cn1cncn1)(Cn1cncn1)c1ccc(F)cc1F [Fluconazole], the MIC (Candida auris; Candida auris 381) was 1 µg/mL (≈ 3.27 µM), the MIC (Candida auris; Candida auris 385) was > 128 µg/mL and the MIC (Candida auris; Candida auris 386) was > 128 µg/mL. The MIC (Candida auris; Candida auris 389) was > 128 µg/mL, the MIC (Candida auris; Candida auris 390) was > 128 µg/mL and the MIC (Candida tropicalis; ATCC1369, read-out: Minimum Inhibitory Concentration (MIC)) was 0.5 µg/mL (≈ 1.63 µM). The MIC (Candida tropicalis; ATCC13803, read-out: Minimum Inhibitory Concentration (MIC)) was 0.25 µg/mL (≈ 0.816 µM), the MIC (Cryptococcus gatti; Cryptococcus gatti NR-43208, fluconazole MIC50 (50% growth reduction)) was 8 µg/mL (≈ 26.1 µM) and the MIC (Cryptococcus gatti; Cryptococcus gatti NR-43209, fluconazole MIC50 (50% growth reduction)) was 16 µg/mL (≈ 52.2 µM). The MIC (Cryptococcus gatti; Cryptococcus gatti NR-43210, fluconazole MIC50 (50% growth reduction)) was 16 µg/mL (≈ 52.2 µM), the MIC (Cryptococcus gatti; Cryptococcus gatti NR-43213, fluconazole MIC50 (50% growth reduction)) was 8 µg/mL (≈ 26.1 µM) and the MIC (Candida albicans; ATCC10231, Candida albicans ATCC 10231, fluconazole MIC50 (50% growth reduction)) was 2 µg/mL (≈ 6.53 µM). The MIC (Candida albicans; ATCC26790, Candida albicans ATCC 26790, fluconazole MIC50 (50% growth reduction)) was 1 µg/mL (≈ 3.27 µM), the MIC (Candida albicans; ATCC64124, Candida albicans ATCC 64124, fluconazole MIC50 (50% growth reduction)) was 128 µg/mL (≈ 418 µM) and the MIC (Candida albicans; Candida albicans NR 29446, fluconazole MIC50 (50% growth reduction)) was > 128 µg/mL. For the same compound, the MIC (Candida albicans; Candida albicans NR 29448, fluconazole MIC50 (50% growth reduction)) was > 128 µg/mL, the MIC (Candida albicans; SC5314, Candida albicans SC5314, fluconazole MIC50 (50% growth reduction)) was 0.5 µg/mL (≈ 1.63 µM) and the MIC (Candida krusei; ATCC14243) was 16 µg/mL (≈ 52.2 µM). For the same compound, the MIC (Candida krusei; ATCC34135) was 16 µg/mL (≈ 52.2 µM), the MIC (Candida krusei) was 16 µg/mL (≈ 52.2 µM) and the MIC (Cryptococcus neoformans; Cryptococcus neoformans NR-41291, fluconazole MIC50 (50% growth reduction)) was 16 µg/mL (≈ 52.2 µM). It also gave an MIC (Cryptococcus neoformans; Cryptococcus neoformans NR-41295, fluconazole MIC50 (50% growth reduction)) of 32 µg/mL (≈ 104 µM), an MIC (Cryptococcus neoformans; Cryptococcus neoformans NR-41298, fluconazole MIC50 (50% growth reduction)) of 4 µg/mL (≈ 13.1 µM) and an MIC (Cryptococcus neoformans; Cryptococcus neoformans NR-48767, fluconazole MIC50 (50% growth reduction)) of 4 µg/mL (≈ 13.1 µM). It also gave an MIC (Candida glabrata; ATCC2001, Candida glabrata ATCC 2001) of 4 µg/mL (≈ 13.1 µM), an MIC (Candida glabrata; ATCC66032, Candida glabrata ATCC 66032) of 8 µg/mL (≈ 26.1 µM) and an MIC (Candida glabrata; Candida glabrata ATCC MYA-2950) of 8 µg/mL (≈ 26.1 µM). For the same compound, the MIC (Candida glabrata; Candida glabrata CAB 524041) was 4 µg/mL (≈ 13.1 µM), the MIC (Aspergillus fumigatus; Aspergillus fumigatus NR-35303, fluconazole MIC50 (50% growth reduction)) was 128 µg/mL (≈ 418 µM) and the MIC (Aspergillus fumigatus; Aspergillus fumigatus NR-35304, fluconazole MIC50 (50% growth reduction)) was > 128 µg/mL. The MIC (Aspergillus fumigatus; Aspergillus fumigatus NR-41312, fluconazole MIC50 (50% growth reduction)) was 128 µg/mL (≈ 418 µM), the MIC (Candida parapsilosis; ATCC22019) was 2 µg/mL (≈ 6.53 µM) and the MIC (Candida parapsilosis) was 0.5 µg/mL (≈ 1.63 µM).
